Laboratory results as given in publication PMC9865085, “Expression and Characterisation of the First Snail-Derived UDP-Gal: Glycoprotein-N-acetylgalactosamine β-1,3-Galactosyltransferase (T-Synthase) from Biomphalaria glabrata” (Molecules, 2023).

Legend:
[1] = molecular target: T1, T-synthase (UDP-Gal: glycoprotein-N-acetylgalactosamine β-1,3-galactosyltransferase) from Biomphalaria glabrata (Biomphalaria glabrata, UniProt A0A2C9JXL4); assay: galactosyl transfer to pNP-α-GalNAc, HPLC; assay type: biochemical; conditions: 5 nmol added to 20 μL assay; 200 μM UDP-Gal, 1 mM pNP-α-GalNAc, 20 mM MnCl2, 2 mM ATP, 50 mM MES pH 6.5, 37 °C, 2 h; bead-bound enzyme or lysate not stated for this test
T1 construct: full-length 388 aa type II transmembrane protein, C-terminal His-tag, codon-optimised synthetic gene, expressed in Sf9 cells; lysate or captured on anti-His magnetic beads
T1 sequence (A0A2C9JXL4 1-388): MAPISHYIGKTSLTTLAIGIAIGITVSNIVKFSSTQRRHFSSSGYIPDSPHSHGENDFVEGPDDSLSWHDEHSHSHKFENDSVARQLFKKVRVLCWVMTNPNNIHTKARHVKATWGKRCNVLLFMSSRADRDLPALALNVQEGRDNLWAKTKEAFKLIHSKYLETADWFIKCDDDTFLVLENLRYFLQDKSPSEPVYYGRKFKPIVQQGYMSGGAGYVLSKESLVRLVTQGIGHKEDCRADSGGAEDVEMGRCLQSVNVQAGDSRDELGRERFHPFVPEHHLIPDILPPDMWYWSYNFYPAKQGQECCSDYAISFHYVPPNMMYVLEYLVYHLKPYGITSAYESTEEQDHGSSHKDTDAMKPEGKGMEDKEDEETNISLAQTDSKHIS

[2] = molecular target: T1, T-synthase (UDP-Gal: glycoprotein-N-acetylgalactosamine β-1,3-galactosyltransferase) from Biomphalaria glabrata; assay: galactosyl transfer, HPLC; product linkage by NMR; assay type: cell-based; conditions: acceptor, 1 mM; 200 μM UDP-Gal, 20 mM MnCl2, 2 mM ATP, 50 mM MES pH 6.5, 37 °C, 2 h; Sf9 lysate, control lysate inactive

% inhibition at 5 nmol [1] | SMILES | galactosyl transfer, HPLC; product linkage by NMR [2]
~ 50% | O=c1ccn([C@@H]2O[C@H](COP(=O)(O)OP(=O)(O)OP(=O)(O)O)[C@@H](O)[C@H]2O)c(=O)[nH]1 [UTP] | –
~ 50% | O=c1ccn([C@@H]2O[C@H](COP(=O)(O)O)[C@@H](O)[C@H]2O)c(=O)[nH]1 [UMP] | –
– | CC(=O)N[C@H]1[C@@H](Oc2ccc([N+](=O)[O-])cc2)O[C@H](CO)[C@H](O)[C@@H]1O [pNP-α-GalNAc] | the identity of the product pNP-α-GalNAc-β-1,3-Gal was clearly confirmed
